Laboratory results as given in patent publication US10508120B2, “TYK2 inhibitors and uses thereof” (Nimbus Lakshmi, Inc., priority 2017, dated 2019).
Where two headings read alike, the source gives them in different places.

Assays:
[1] = biological target: JAK2 kinase domain (JH1) (Homo sapiens (Human), UniProt O60674); test: JAK2 Radioactive Kinase Assay; format: biochemical; settings: for inhibition at 10 µM: read-out: JAK2 JH1% Inhibition @ 10 μM
Procedure: (§1) The Tyk2 and JAK2 radioactive kinase assay measures the percent inhibition at the Tyk2 kinase domain (DH1) and the percent inhibition at the JAK2 kinase domain (JH1). Results of the assay are expressed as percent inhibition at 10 μM.

[2] = biological target: Tyk2 kinase domain (DH1) (Homo sapiens (Human), UniProt P29597); test: Tyk2 Radioactive Kinase Assay; format: biochemical; settings: for inhibition at 10 µM: read-out: Tyk2 JH1% Inhibition @ 10 μM
Procedure: as §1

Tyk2 kinase domain (DH1), sequence (P29597 897-1176): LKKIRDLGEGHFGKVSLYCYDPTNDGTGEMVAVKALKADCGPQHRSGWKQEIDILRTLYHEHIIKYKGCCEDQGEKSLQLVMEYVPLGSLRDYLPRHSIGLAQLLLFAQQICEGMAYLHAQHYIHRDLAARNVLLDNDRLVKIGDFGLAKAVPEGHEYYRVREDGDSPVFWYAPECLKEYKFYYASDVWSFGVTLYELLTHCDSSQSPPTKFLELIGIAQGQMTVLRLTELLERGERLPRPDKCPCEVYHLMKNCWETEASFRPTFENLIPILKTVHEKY
JAK2 kinase domain (JH1), sequence (O60674 849-1124): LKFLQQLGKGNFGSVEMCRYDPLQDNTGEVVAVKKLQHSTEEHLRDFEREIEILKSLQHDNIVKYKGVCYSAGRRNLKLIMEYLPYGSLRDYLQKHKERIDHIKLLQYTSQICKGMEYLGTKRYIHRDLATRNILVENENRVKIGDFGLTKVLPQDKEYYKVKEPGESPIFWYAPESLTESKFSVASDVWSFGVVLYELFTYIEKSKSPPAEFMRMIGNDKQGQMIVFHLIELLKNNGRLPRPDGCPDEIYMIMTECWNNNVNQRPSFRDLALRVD

Structure (SMILES) | JAK2 JH1% Inhibition @ 10 μM ([1]; compound at 10 μM, ATP 10 μM) | Tyk2 JH1% Inhibition @ 10 μM ([2]; compound at 10 μM, ATP 10 μM) | JAK2 JH1% Inhibition @ 10 μM ([1]; 10 μM compound, 10 μM ATP) | Tyk2 JH1% Inhibition @ 10 μM ([2]; 10 μM compound, 10 μM ATP) | other results
CNc1cc(Nc2cccn([C@H]3CCCOC3)c2=O)nc2c(C(=O)N[C@H]3CC[C@@H]3O)cnn12 [I-724] | A (percent inhibition at 10 μM lower than 50) | A (percent inhibition at 10 μM lower than 50) | – | – | –
CNc1cc(Nc2cccn(-c3cccc(F)c3)c2=O)nc2c(C(=O)N[C@H]3CC[C@H]3O)cnn12 [I-945] | – | – | – | – | inhibition at 10 µM ([1]; 10 μM compound, 10 μM ATP): < 50%; inhibition at 10 µM ([2]; 10 μM compound, 10 μM ATP): < 50%
CNc1cc(Nc2cccn(-c3ccccn3)c2=O)nc2c(C(=O)N[C@H]3CC[C@@H]3OC)cnn12 [I-909, N-((1S,2S)-2-methoxycyclobutyl)-7-(methylamino)-5-((2-oxo-2H-[1,2′-bipyridin]-3-yl)amino)pyrazolo[1,5-a]pyrimidine-3-carboxamide] | – | – | – | – | inhibition at 10 µM [1]: < 50%; inhibition at 10 µM [2]: < 50%
CNc1cc(-c2cn(CCN3CCOCC3)c3ncccc23)nc2c(C(=O)N[C@@H]3CC[C@H]3O)cnn12 [I-835] | – | – | – | – | inhibition at 10 µM ([1]; 10 μM compound, 10 μM ATP): < 50%; inhibition at 10 µM ([2]; 10 μM compound, 10 μM ATP): < 50%
CNc1cc(Nc2cccc(N3CCCC3=O)n2)nc2c(C(=O)N[C@@H]3CC[C@@H]3O)cnn12 [I-970] | – | – | – | – | inhibition at 10 µM ([1]; 10 μM compound, 10 μM ATP): < 50%; inhibition at 10 µM ([2]; 10 μM compound, 10 μM ATP): < 50%
CNc1cc(Nc2cccn([C@@H]3CCC[C@@H](O)C3)c2=O)nc2c(C(=O)N[C@@H]3C[C@@H]3F)cnn12 [I-983] | – | – | A (percent inhibition at 10 μM lower than 50) | A (percent inhibition at 10 μM lower than 50) | –
CNc1cc(Nc2cccc([C@@H]3CCCCO3)n2)nc2c(C(=O)N[C@@H]3CC[C@@H]3O)cnn12 [I-646] | A (percent inhibition at 10 μM lower than 50) | A (percent inhibition at 10 μM lower than 50) | – | – | –
CNc1cc(Nc2cccn(C(C)C)c2=O)nc2c(C(=O)N[C@@H]3CC[C@H]3O)cnn12 [I-981] | – | – | A (percent inhibition at 10 μM lower than 50) | A (percent inhibition at 10 μM lower than 50) | –
CNc1cc(Nc2cccn([C@@H]3CCCOC3)c2=O)nc2c(C(=O)N[C@H]3COC[C@H]3O)cnn12 [I-786] | A (percent inhibition at 10 μM lower than 50) | A (percent inhibition at 10 μM lower than 50) | – | – | –
CNc1cc(Nc2cccn(C3CCN(CCF)CC3)c2=O)nc2c(C(=O)N[C@@H]3CC[C@H]3O)cnn12 [I-898] | – | – | A (percent inhibition at 10 μM lower than 50) | A (percent inhibition at 10 μM lower than 50) | –
CNc1cc(Nc2cccn([C@H]3CC[C@@H]3OC)c2=O)nc2c(C(=O)NC3CC3)cnn12 [I-936] | – | – | A (percent inhibition at 10 μM lower than 50) | A (percent inhibition at 10 μM lower than 50) | –
CNc1cc(Nc2cccn([C@@H]3CCCOC3)c2=O)nc2c(C(=O)N[C@H]3CC[C@@H]3O)cnn12 [I-726] | A (percent inhibition at 10 μM lower than 50) | A (percent inhibition at 10 μM lower than 50) | – | – | –
CNc1cc(Nc2cccn(C3CC4(COC4)C3)c2=O)nc2c(C(=O)N[C@H]3CC[C@H]3O)cnn12 [I-870] | – | – | – | – | inhibition at 10 µM ([1]; 10 μM compound, 10 μM ATP): < 50%; inhibition at 10 µM ([2]; 10 μM compound, 10 μM ATP): < 50%
CNc1cc(Nc2cccn(C(C)C)c2=O)nc2c(C(=O)N[C@H]3CC[C@H]3O)cnn12 [I-977] | – | – | A (percent inhibition at 10 μM lower than 50) | A (percent inhibition at 10 μM lower than 50) | –
CNc1cc(Nc2cccnc2OC)nc2c(C(=O)N[C@@H]3CCC[C@H]3O)cnn12 [I-448, (R)—N-((1R,2R)-2-hydroxycyclopentyl)-5-((2-methoxypyridin-3-yl)amino)-7-(methylamino)pyrazolo[1,5-a]pyrimidine-3-carboxamide] | A (percent inhibition at 10 μM lower than 50) | A (percent inhibition at 10 μM lower than 50) | – | – | –
